According to ChEMBL document CHEMBL1201862, “PubChem BioAssay data set” (2004):
The source made the active and inactive calls.

Key:
Beta Lactamase = Beta Lactamase (Pseudomonas aeruginosa, UniProt Q932Y6); assay: beta-lactamase reporter inhibitor potency, dose response, artefact control for TLR9-MyD88 binding inhibitor project, BLA reporter cells, FRET fluorescence (AID 588341); format: cell-based;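 also: cell based assay in CHO-K1 cells stably expressing beta-lactamase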
[1] = Fluorescence-based cell-based high throughput dose response assay for inhibitors of the interaction of nucleotide-binding oligomerization domain containing 2 (NOD2) and the receptor-interacting serine-threonine kinase 2 (RIPK2).; format: functional; conditions: Homo sapiens
Aminopeptidase N = target: T1, Aminopeptidase N (Plasmodium falciparum FcB1/Columbia, UniProt O96935); assay: P. falciparum M1AAP inhibitors, biochemical, fluorogenic H-Leu-NHMec substrate, 1536-well (AID 1445); parameters: species or system Plasmodium falciparum 3D7, 3D7
T1 sequence (O96935 whole entry): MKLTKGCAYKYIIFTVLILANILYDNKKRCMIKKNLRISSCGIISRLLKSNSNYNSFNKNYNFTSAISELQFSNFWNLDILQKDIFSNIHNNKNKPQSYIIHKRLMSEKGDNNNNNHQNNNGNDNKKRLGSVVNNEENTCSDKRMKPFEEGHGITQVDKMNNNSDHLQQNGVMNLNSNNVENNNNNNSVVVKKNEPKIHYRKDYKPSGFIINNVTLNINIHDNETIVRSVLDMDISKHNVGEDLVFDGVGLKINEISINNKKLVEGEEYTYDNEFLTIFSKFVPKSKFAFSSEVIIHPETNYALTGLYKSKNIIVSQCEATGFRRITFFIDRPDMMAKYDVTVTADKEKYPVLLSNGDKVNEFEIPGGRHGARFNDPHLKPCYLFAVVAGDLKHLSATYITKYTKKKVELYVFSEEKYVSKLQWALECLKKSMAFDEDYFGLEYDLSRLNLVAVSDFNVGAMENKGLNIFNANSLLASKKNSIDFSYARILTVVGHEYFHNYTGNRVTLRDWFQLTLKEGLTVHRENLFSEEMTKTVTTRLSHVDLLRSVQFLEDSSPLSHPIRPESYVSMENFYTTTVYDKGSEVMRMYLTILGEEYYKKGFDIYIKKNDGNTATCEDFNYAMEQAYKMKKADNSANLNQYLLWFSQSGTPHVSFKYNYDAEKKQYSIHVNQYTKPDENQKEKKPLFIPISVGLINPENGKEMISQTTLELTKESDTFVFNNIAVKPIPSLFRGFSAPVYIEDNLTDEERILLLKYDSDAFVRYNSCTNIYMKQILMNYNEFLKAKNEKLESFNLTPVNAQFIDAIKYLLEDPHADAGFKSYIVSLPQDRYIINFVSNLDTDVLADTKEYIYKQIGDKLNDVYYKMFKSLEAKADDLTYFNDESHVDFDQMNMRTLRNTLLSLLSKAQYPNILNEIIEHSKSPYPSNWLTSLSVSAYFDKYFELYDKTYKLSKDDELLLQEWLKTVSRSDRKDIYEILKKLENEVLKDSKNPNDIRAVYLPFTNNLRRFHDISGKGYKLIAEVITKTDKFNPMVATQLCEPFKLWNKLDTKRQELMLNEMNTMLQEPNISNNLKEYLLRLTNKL

[2] = target: T2, Kappa-type opioid receptor (Homo sapiens, UniProt P41145); format: functional
T2 sequence (P41145 whole entry, the tested form may be a part): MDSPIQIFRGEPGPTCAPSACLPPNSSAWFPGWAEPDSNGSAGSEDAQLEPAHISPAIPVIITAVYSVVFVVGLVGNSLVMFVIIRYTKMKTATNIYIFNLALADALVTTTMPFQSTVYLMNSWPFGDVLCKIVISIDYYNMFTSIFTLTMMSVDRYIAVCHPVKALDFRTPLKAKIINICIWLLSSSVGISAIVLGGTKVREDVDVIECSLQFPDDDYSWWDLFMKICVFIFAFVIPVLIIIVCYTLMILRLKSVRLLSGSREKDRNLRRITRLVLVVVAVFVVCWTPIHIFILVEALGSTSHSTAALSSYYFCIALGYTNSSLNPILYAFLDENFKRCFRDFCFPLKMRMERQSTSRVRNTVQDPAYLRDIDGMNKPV

CHO = assay: cytotoxicity in TLR9-MyD88 CHO cells, dose response, cytotoxicity control for TLR9-MyD88 binding inhibitor project, cell-based, luminescence (AID 588339); format: functional, hamster; conditions: Cricetulus griseus;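 also: CHO cells stably coexpressing TLR9 and MyD88 fusions from primary screen; compound exposure lasted 48 hours before viability readout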
[3] = target: Dual specificity tyrosine-phosphorylation-regulated kinase 1A (Rattus norvegicus, UniProt Q63470); format: biochemical, Homo sapiens
Beta-galactosidase = Beta-galactosidase (Escherichia coli, UniProt Q8VNN2); format: functional
Beta-galactosidase, sequence (Q8VNN2 whole entry): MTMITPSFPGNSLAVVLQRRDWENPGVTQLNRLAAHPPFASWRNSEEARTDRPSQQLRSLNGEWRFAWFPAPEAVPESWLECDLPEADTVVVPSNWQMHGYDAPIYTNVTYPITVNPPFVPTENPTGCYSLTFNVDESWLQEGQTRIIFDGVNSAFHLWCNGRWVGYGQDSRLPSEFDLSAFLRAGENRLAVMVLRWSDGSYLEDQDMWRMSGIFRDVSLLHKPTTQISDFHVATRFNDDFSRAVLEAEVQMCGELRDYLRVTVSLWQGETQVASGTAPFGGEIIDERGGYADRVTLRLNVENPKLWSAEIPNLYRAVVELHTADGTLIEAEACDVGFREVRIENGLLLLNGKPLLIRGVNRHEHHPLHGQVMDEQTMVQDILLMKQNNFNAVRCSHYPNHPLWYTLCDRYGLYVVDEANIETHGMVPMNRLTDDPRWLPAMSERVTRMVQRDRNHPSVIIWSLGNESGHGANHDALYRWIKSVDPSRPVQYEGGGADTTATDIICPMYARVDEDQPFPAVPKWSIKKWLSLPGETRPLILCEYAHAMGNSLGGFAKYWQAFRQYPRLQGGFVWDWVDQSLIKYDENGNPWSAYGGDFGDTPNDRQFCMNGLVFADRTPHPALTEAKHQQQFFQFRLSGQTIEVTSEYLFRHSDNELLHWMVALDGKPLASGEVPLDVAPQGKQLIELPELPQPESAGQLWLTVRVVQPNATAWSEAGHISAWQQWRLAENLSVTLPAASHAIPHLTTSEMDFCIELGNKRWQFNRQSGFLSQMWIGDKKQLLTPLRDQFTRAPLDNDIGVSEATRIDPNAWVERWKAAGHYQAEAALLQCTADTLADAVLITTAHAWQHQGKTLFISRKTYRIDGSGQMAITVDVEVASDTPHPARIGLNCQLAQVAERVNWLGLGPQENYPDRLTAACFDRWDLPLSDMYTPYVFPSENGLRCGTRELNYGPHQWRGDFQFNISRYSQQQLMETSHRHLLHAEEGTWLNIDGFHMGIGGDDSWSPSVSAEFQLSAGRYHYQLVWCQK

[4] = target: T2, Kappa-type opioid receptor; format: functional; remark: listed apart in the source
INS1 = assay: beta cell apoptosis inhibitors, cytokine rescue, dose response, luminescence, retest (AID 449756); format: functional, cell-based; conditions: Rattus norvegicus;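 also: cell death triggered by IL-1 beta plus TNF-alpha plus IFN-gamma mixture; protective hits raise ATP signal compared with cytokine alone wells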
[5] = target: T3, Tyrosine-protein phosphatase non-receptor type 22 (Homo sapiens, UniProt Q9Y2R2); format: functional
T3 sequence (Q9Y2R2 whole entry): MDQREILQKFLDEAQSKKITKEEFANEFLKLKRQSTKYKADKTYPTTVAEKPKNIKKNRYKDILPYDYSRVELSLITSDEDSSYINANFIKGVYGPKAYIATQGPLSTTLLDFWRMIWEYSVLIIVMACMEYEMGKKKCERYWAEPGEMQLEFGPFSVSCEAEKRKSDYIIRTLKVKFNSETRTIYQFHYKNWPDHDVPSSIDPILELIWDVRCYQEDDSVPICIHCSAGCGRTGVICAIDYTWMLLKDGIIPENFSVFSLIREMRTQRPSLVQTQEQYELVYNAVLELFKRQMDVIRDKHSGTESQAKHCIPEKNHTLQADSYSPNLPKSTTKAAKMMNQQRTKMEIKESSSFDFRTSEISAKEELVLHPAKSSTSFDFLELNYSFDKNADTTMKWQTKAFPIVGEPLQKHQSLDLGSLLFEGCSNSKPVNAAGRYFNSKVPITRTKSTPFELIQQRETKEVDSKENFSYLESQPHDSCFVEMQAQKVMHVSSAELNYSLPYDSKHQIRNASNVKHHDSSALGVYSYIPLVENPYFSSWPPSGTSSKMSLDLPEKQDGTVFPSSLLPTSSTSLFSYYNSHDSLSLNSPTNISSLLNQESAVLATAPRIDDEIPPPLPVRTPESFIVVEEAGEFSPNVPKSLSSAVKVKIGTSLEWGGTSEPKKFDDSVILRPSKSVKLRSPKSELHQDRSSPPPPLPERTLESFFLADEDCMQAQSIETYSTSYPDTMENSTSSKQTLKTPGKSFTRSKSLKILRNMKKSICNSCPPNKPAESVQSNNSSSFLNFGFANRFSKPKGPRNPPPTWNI

[6] = target: T3, Tyrosine-protein phosphatase non-receptor type 22; format: functional; remark: listed apart in the source
[7] = target: T3, Tyrosine-protein phosphatase non-receptor type 22; assay: inhibitors of LYP phosphatase, biochemical, fluorescence intensity, uHTS (AID 1779)
[8] = target: T4, Carboxy-terminal domain RNA polymerase II polypeptide A small phosphatase 1 (Homo sapiens, UniProt Q9GZU7); assay: inhibitors of CTDSP1, concentration-response testing, biochemical assay, absorbance-based, actives from ultra-high-throughput screening (AID 540297); format: functional
T4 sequence (Q9GZU7 whole entry): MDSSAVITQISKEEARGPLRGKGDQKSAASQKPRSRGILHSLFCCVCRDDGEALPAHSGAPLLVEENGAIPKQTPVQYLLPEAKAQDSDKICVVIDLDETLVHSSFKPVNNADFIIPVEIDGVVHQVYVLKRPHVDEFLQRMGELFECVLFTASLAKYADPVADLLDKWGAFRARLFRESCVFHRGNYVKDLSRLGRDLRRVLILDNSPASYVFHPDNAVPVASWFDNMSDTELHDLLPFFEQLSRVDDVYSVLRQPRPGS

[9] = target: T5, Tyrosine-protein phosphatase non-receptor type 7 (Homo sapiens, UniProt P35236); format: functional
T5 sequence (P35236 whole entry): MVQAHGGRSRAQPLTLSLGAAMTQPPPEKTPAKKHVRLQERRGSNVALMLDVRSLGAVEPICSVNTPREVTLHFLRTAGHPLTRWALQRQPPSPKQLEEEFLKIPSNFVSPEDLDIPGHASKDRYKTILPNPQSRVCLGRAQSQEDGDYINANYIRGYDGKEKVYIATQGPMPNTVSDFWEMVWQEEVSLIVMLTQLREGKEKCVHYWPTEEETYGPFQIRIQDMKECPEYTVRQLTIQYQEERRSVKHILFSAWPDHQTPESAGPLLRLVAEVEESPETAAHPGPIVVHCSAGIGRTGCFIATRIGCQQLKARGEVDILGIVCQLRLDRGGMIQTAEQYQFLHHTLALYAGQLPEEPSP

[10] = HIV-1 Env-mediated cell fusion inhibitors, dose response, CCR5-tropic Env (AID 2279); format: functional
[11] = system: Streptococcus sp. 'group A'; assay: growth inhibition of control SK(-) GAS strain, dose response, counter-screen for streptokinase expression inhibitor project, luminescence, kanamycin, BacTiterGlo, confirmation (AID 1900); format: functional, organism-based
[12] = target: Envelope glycoprotein gp160 (Human immunodeficiency virus 1, UniProt Q6QLK5); assay: inhibitors of HIV fusion peptide binding, primary screen, biochemical, uHTS, fluorescence dequenching (AID 1986)
Envelope glycoprotein gp160, sequence (Q6QLK5 whole entry, the tested form may be a part): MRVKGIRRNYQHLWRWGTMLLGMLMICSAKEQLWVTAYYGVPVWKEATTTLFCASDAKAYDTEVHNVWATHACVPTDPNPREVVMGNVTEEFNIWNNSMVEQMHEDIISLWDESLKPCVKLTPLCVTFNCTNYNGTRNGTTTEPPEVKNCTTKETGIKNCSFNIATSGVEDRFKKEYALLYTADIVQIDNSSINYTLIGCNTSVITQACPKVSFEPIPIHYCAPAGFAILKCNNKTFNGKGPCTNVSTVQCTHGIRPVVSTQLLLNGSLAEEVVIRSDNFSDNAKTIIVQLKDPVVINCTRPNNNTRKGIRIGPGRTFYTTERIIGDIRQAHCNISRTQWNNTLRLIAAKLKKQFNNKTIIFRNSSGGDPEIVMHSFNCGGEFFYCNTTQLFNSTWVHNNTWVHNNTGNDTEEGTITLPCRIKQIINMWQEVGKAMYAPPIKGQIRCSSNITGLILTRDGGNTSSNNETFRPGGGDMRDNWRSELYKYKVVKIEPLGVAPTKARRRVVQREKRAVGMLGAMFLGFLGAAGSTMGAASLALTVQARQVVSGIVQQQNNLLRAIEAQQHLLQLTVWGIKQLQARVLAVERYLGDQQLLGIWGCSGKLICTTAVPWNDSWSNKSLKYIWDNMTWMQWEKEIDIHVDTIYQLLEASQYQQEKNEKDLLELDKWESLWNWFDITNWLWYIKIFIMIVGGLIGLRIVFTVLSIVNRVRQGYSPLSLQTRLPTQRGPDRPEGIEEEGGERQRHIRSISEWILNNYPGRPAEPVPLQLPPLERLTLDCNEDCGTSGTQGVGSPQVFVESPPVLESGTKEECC

[13] = target: T6, Long-chain-fatty-acid--AMP ligase FadD28 (Mycobacterium tuberculosis, UniProt P9WQ59); assay: Fluorescence polarization aasay to screen for inhibitors that compete for the binding of FadD28 to a bisubstrate Measured in Biochemical System Using Plate Reader - 2147-01_Inhibitor_Dose_CherryPick_Activity.; format: functional, Mycobacterium tuberculosis H37Rv
T6 sequence (P9WQ59 whole entry): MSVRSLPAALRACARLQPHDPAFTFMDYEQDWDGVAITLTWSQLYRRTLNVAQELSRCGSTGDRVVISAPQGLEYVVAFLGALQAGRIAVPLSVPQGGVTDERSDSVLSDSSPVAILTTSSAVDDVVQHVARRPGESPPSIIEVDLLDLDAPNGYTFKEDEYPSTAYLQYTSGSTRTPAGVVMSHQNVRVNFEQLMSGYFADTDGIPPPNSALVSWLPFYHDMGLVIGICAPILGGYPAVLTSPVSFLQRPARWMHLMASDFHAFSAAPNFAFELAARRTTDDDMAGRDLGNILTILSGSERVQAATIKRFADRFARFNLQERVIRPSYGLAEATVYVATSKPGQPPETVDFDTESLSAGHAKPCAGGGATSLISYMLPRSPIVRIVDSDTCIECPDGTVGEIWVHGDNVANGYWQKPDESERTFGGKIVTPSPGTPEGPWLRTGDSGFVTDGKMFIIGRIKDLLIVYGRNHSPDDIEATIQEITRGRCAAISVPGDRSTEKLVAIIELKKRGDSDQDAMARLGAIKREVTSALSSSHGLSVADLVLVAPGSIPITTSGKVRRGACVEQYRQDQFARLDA

Streptococcus = assay: Group A Streptococcus viability loss, dose response, counter-screen for streptokinase expression inhibitor project, luminescence, BacTiterGlo (AID 1915); format: functional, organism-based;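 also: potency for reduction of bacterial viability or growth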
Vero [14] = assay: Vero E6 cell cytotoxicity, SAR follow-up, cytotoxicity control for West Nile virus antiviral project, synthesized analogs (AID 2244); format: functional; conditions: Chlorocebus sabaeus
[15] = A Cell Based Assay for the Identification of Probe candidate Compounds with Anti- Venezuelan Equine Encephalitis virus. [Related pubchem assays: 2409, 2419, 1621, 2238, 2405, 2024, 2065, 2402, 2414, 1635, 1650, 2244 ]; format: functional
Vero [16] = assay: cytotoxicity of synthesized analogs in Vero cells, SAR follow-up, cytotoxicity control for West Nile virus antiviral project, cell-based, set II (AID 2402); format: functional; conditions: Chlorocebus sabaeus
Vero [17] = assay: West Nile virus antiviral activity, cell-based, CPE readout (AID 1621); format: functional; conditions: Chlorocebus sabaeus
Vero [18] = assay: West Nile virus cytopathic effect inhibition, cell-based (AID 2419); format: functional; conditions: Chlorocebus sabaeus
Vero [19] = assay: cytotoxicity of synthesized analogs in Vero 76, SAR follow-up, cytotoxicity control for West Nile virus antiviral project, Vero 76 cells (AID 2414); format: functional; conditions: Chlorocebus sabaeus
Vero [20] = assay: West Nile virus CPE inhibition, SAR follow-up, cell-based, synthesized analogs (AID 2238); format: functional; conditions: Chlorocebus sabaeus
[21] = target: G-protein coupled receptor 55 (Homo sapiens, UniProt Q9Y2T6); assay: SAR Analysis of Selective Antagonists of GPR55 using an Image-Based Assay - Set 3. [Related pubchem assays (depositor defined):AID2058, AID2079]; format: functional
G-protein coupled receptor 55, sequence (Q9Y2T6 whole entry): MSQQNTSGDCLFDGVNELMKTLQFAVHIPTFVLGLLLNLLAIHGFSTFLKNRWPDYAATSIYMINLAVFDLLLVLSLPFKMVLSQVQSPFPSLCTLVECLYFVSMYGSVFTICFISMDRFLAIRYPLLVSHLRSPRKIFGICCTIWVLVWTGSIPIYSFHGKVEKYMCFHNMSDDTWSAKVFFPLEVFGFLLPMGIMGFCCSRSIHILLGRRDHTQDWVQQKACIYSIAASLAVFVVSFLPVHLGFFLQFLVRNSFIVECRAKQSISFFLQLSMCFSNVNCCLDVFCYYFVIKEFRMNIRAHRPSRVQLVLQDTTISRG

[22] = target: T7, G-protein coupled receptor 35 (Homo sapiens, UniProt Q9HC97); assay: SAR analysis of Antagonists of the GPR35 Receptor using an Image-Based Assay - Set 5. [Related pubchem assays (depositor defined):AID2058, AID2079]; format: functional
T7 sequence (Q9HC97 whole entry): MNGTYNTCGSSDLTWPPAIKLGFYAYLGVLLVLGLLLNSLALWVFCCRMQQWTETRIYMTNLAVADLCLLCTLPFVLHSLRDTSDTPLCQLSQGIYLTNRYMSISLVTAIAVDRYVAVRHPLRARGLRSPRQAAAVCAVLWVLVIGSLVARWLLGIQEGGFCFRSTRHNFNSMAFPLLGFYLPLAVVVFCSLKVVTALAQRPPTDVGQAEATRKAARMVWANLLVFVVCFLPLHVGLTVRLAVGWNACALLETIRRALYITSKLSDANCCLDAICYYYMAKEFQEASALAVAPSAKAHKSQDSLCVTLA

[23] = target: T7, G-protein coupled receptor 35; assay: SAR Analysis for the identification of Selective Antagonists of ERK1/2 Activity in GPR35-Overexpressing U2OS Cells - Set 2. [Related pubchem assays (depositor defined):AID2058, AID2079]; format: functional, cell-based

Beta Lactamase, sequence (Q932Y6 whole entry, the tested form may be a part): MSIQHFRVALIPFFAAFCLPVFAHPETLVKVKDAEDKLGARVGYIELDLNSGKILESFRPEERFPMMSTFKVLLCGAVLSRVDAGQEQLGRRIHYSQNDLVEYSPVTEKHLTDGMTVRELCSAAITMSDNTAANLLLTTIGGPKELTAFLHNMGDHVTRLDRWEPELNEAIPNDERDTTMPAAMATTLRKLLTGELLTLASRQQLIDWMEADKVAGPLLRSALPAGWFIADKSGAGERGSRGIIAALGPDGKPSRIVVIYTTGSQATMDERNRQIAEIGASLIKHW

N#CC(C#N)=C1C=CC=CN1/C(=C\c1ccco1)C(=O)c1ccccc1
18.9 µM: IC50 [2]
inactive: IC50 (Beta Lactamase) 15.9 µM | EC50 (Beta-galactosidase) > 31.5 µM
active: IC50 [1] 1.02 µM | IC50 (Aminopeptidase N) 65.2 µM | IC50 (CHO) 1.64 µM | AC50 [3] 5.46 µM | IC50 [4] 4.86 µM | AC50 (INS1) 7.4 µM

CCOc1cc(/C=C2/NC(=O)NC2=O)cc(Br)c1OCc1ccc(C(=O)O)cc1
active: IC50 [5] 5.76 µM | IC50 [6] 2.39 µM | IC50 [7] 8.82 µM | IC50 [8] 5.9 µM | IC50 [9] 4.2 µM

Oc1cc(-c2ccccc2)nc2c(-c3ccccc3)c(C(F)(F)F)nn12
active: IC50 [10] > 50 µM | EC50 [11] 3.47 µM | IC50 [12] 17.5 µM | AC50 [13] 54.1 µM | EC50 (Streptococcus) 4.84 µM

CN(C)CCCN1c2ccc([N+](=O)[O-])cc2CCc2cc([N+](=O)[O-])ccc21
active: CC50 (Vero [14]) 21.6 µM | IC50 [15] 8.59 µM | CC50 (Vero [16]) 15.4 µM | IC50 (Vero [17]) 10.8 µM | IC50 (Vero [18]) 11.4 µM | CC50 (Vero [19]) 18.5 µM | IC50 (Vero [20]) 13.9 µM

CNC(=S)N/N=C/c1c(C(=O)OC)cnn1-c1ccc(Cl)cc1
active: IC50 [22] 1.25 µM | IC50 [23] 4.11 µM
inactive: IC50 [21] > 32 µM
